In ChEMBL document CHEMBL1141727, “Isolation and cytotoxic evaluation of marine sponge-derived norterpene peroxides” (J Nat Prod, 1998):

Tests used:
Assay type in all cases: functional
[1] = tested on: SNB-75; assay: Growth inhibition of human SNB75 cells
[2] = tested on: MDA-MB-435; assay: Growth inhibition of human MDA-MB-435 cells
[3] = tested on: HL-60(TB); assay: Growth inhibition of human HL-60(TB) cells
[4] = tested on: HOP-92; assay: Growth inhibition of human HOP92 cells
[5] = tested on: MDA-MB-231; assay: Growth inhibition of human MDA-MB-231 cells
[6] = tested on: KM12; assay: Growth inhibition of human KM12 cells
[7] = Growth inhibition of human MCF7/ADR resistant cells; conditions: NCI/ADR-RES
[8] = tested on: NCI-H522; assay: Growth inhibition of human NCI-H522 cells
[9] = tested on: Malme-3M; assay: Growth inhibition of human MALME-3M cells
[10] = tested on: SF-268; assay: Growth inhibition of human SF268 cells
[11] = tested on: K562; assay: Growth inhibition of human K562 cells
[12] = tested on: PO3; assay: Growth inhibition of mouse PO3 cells assessed as zone units at 50 ug/disk by disk diffusion agar colony formation assay
[13] = tested on: P388; assay: Growth inhibition of mouse P388 cells assessed as zone units at 50 ug/disk by disk diffusion agar colony formation assay
[14] = tested on: OVCAR-8; assay: Growth inhibition of human OVCAR8 cells
[15] = tested on: SK-MEL-2; assay: Growth inhibition of human SK-MEL-2 cells
[16] = Growth inhibition of human […] cells
[17] = Growth inhibition of human Hs 578T cells
[18] = tested on: A498; assay: Growth inhibition of human A498 cells
[19] = tested on: MOLT-4; assay: Growth inhibition of human MOLT4 cells
[20] = tested on: HT-29; assay: Growth inhibition of human HT-29 cells
[21] = tested on: IGROV-1; assay: Growth inhibition of human IGROV1 cells
[22] = tested on: SK-MEL-28; assay: Growth inhibition of human SK-MEL-28 cells
[23] = tested on: L1210; assay: Growth inhibition of mouse L1210 cells assessed as zone units at 50 ug/disk by disk diffusion agar colony formation assay
[24] = tested on: U-251; assay: Growth inhibition of human U251 cells
[25] = tested on: HOP-62; assay: Growth inhibition of human HOP62 cells
[26] = tested on: SR; assay: Growth inhibition of human SR cells
[27] = tested on: OVCAR-3; assay: Growth inhibition of human OVCAR-3 cells
[28] = tested on: CCRF-CEM; assay: Growth inhibition of human CCRF-CEM cells
[29] = tested on: EKVX; assay: Growth inhibition of human EKVX cells
[30] = Growth inhibition of mouse M17/ADR cells assessed as zone units at 50 ug/disk by disk diffusion agar colony formation assay

CC1=C(CC/C(C)=C/CC[C@@]2(C)CC[C@@H]([C@H](C)C(=O)O)OO2)C(C)(C)CCC1 [EPIMUQUBILIN A]
GI50 [1]: > 100 µM | GI50 [2]: > 100 µM | GI50 [3]: 47.8 µM | GI50 [4]: > 100 µM | GI50 [5]: > 100 µM | GI50 [6]: > 100 µM | GI50 [7]: > 100 µM | GI50 [8]: 13.8 µM | GI50 [9]: > 100 µM | GI50 [10]: > 100 µM | GI50 [11]: > 100 µM | Activity [12]: 0 Zone units | Activity [13]: 50 Zone units | GI50 [14]: > 100 µM | GI50 [15]: > 100 µM | GI50 [16]: > 100 µM | GI50 [17]: > 100 µM | GI50 [18]: > 100 µM | GI50 [19]: 42.6 µM | GI50 [20]: > 100 µM | GI50 [21]: 43.6 µM | GI50 [22]: > 100 µM | Activity [23]: 50 Zone units | GI50 [24]: > 100 µM | GI50 [25]: > 100 µM | GI50 [26]: > 100 µM | GI50 [27]: > 100 µM | GI50 [28]: 61.7 µM | GI50 [29]: > 100 µM | Activity [30]: 70 Zone units
